# Laboratory results published in ChEMBL document CHEMBL1201862, “PubChem BioAssay data set” (2004).
# Calls of active or inactive are those of the source.
# Legend:
# [1] = molecular target: Peroxisome proliferator-activated receptor gamma/Nuclear receptor coactivator 1 (Homo sapiens, UniProt P37231); assay: (§1) TR-FRET dose response biochemical High Throughput Screening assay for agonists of the steroid receptor coactivator 1 (SRC-1) recruitment by the peroxisome proliferator-activated receptor gamma (PPAR gamma): non-selective agonists. [Related pubchem assays (depositor defined):AID1300, AID1808, AID504735, AID631]; assay type: protein assay
# [2] = molecular target: Peroxisome proliferator-activated receptor gamma/Nuclear receptor coactivator 3 (Homo sapiens, UniProt P37231); assay: as §1, with “3 (SRC-3)” for “1 (SRC-1)”, “assays: 1301 (Confirmation screen.), 1048 (Primary screen.)]” for “assays (depositor defined):AID1300, AID1808, AID504735, AID631]”; assay type: functional
# [3] = molecular target: Peroxisome proliferator-activated receptor gamma/Nuclear receptor coactivator 2 (Homo sapiens, UniProt P37231); assay: TR-FRET dose response biochemical High Throughput Screening assay for agonists of the steroid receptor coactivator 2 (SRC-2) recruitment by the peroxisome proliferator-activated receptor gamma (PPAR gamma): non-selective agonists. [Related pubchem assays: 1297, 1032 ]; assay type: functional
# [4] = Luminescence Cell-Based Dose Retest to Confirm Inhibitors of Cancer Stem Cells. [Related pubchem assays (depositor defined):AID2717, AID2721]; assay type: functional; conditions: Homo sapiens
# Cannabinoid receptor 2 [5] = molecular target: T1, Cannabinoid receptor 2 (Homo sapiens, UniProt P34972); assay: SAR analysis of antagonists of the Cannabinoid Receptor 2 using an Image-Based Assay - Set 2. [Related pubchem assays (depositor defined):AID1961, AID1965]; assay type: functional
# [6] = molecular target: G-protein coupled receptor 55 (Homo sapiens, UniProt Q9Y2T6); assay: SAR analysis of selective Agonists of GPR55 using an Image-Based Assay - Set 2. [Related pubchem assays (depositor defined):AID1961, AID1965]; assay type: functional
# Cannabinoid receptor 2 [7] = molecular target: T1, Cannabinoid receptor 2; assay: SAR analysis of agonists of the Cannabinoid Receptor 2 using an Image-Based Assay - Set 2. [Related pubchem assays (depositor defined):AID1961, AID1965]; assay type: functional
# [8] = molecular target: T2, G-protein coupled receptor 35 (Homo sapiens, UniProt Q9HC97); assay: SAR analysis of Agonists of the GPR35 Receptor using an Image-Based Assay - Set 3. [Related pubchem assays (depositor defined):AID1961, AID1965]; assay type: functional
# Cannabinoid receptor 1 [9] = molecular target: T3, Cannabinoid receptor 1 (Homo sapiens, UniProt P21554); assay: SAR analysis of antagonists of the Cannabinoid Receptor 1 using an Image-Based Assay - Set 3. [Related pubchem assays (depositor defined):AID1961, AID1965]; assay type: functional
# Cannabinoid receptor 1 [10] = molecular target: T3, Cannabinoid receptor 1; assay: SAR analysis of agonists of the Cannabinoid Receptor 1 using an Image-Based Assay - Set 3. [Related pubchem assays (depositor defined):AID1961, AID1965]; assay type: functional
# [11] = molecular target: T2, G-protein coupled receptor 35; assay: SAR analysis of Antagonists of the GPR35 Receptor using an Image-Based Assay - Set 4. [Related pubchem assays (depositor defined):[…]]; assay type: functional
# [12] = A small molecule screen for inhibitors of the PhoP region in Salmonella typhi (5) using purified and synthesized compounds. [Related pubchem assays (depositor defined):AID1850, AID1864, AID1985, AID2252, AID2384, AID2612, AID2811, AID434995]; assay type: functional
# [13] = molecular target: Sphingosine 1-phosphate receptor 4 (Homo sapiens, UniProt O95977); assay: Late-stage fluorescence dose response cell-based assay to identify agonists of the Sphingosine 1-Phosphate Receptor 4 (S1P4): purchased compounds EC50. [Related pubchem assays (depositor defined):AID1509, AID1523, AID1563, AID1686, AID1701, AID1801]; assay type: functional
# [14] = molecular target: Intestinal-type alkaline phosphatase (Homo sapiens, UniProt P09923); assay: human intestinal alkaline phosphatase activators, dose response, biochemical, luminescence, uHTS hits (AID 463120); assay type: functional
# 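Wherever AC50 is given: cells exposed to compound for roughly 70 hours or longer before luminescence read.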
# T3 sequence (P21554 whole entry): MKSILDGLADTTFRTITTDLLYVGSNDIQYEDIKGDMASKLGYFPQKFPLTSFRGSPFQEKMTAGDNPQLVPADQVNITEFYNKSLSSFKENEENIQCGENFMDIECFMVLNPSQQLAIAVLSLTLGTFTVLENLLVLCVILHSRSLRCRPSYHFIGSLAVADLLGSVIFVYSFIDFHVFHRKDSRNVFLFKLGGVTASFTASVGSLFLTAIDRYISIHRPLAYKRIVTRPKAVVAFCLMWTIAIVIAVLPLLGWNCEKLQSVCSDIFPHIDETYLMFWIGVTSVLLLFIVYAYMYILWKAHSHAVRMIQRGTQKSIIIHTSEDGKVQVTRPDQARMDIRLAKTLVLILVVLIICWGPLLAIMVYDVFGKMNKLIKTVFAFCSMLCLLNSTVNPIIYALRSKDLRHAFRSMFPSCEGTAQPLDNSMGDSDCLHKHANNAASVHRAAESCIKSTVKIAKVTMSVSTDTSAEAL
# T2 sequence (Q9HC97 whole entry): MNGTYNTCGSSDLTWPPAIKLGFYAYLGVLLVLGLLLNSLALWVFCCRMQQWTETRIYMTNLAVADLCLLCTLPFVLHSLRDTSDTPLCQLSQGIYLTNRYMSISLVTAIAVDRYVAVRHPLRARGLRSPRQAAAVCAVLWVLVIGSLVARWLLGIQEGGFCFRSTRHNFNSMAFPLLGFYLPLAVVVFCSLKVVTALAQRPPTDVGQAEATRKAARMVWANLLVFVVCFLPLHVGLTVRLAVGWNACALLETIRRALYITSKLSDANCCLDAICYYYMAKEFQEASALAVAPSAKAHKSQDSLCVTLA
# T1 sequence (P34972 whole entry): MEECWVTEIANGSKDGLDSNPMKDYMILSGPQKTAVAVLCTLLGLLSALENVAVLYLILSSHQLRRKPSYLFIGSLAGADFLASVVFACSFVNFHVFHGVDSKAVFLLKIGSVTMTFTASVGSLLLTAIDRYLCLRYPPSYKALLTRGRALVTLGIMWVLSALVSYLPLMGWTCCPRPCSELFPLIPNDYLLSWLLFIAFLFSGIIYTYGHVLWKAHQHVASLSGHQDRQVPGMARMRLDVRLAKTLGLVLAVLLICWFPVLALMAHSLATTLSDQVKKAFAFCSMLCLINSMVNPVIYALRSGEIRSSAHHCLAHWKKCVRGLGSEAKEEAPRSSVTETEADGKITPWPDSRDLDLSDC
# Chain of Peroxisome proliferator-activated receptor gamma/Nuclear receptor coactivator 2 (P37231 whole entry): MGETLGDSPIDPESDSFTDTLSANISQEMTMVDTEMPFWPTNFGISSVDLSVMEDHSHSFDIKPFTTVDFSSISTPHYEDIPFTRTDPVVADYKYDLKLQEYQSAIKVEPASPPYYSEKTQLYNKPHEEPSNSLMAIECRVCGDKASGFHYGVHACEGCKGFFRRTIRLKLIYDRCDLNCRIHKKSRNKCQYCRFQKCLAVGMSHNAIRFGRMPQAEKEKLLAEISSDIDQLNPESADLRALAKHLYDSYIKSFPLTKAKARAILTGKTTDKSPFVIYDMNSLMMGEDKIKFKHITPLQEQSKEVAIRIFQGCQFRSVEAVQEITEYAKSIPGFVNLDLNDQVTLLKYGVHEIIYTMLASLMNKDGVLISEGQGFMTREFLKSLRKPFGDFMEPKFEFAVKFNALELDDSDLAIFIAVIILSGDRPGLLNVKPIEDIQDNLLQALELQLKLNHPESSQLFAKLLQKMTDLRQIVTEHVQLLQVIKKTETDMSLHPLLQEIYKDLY
# Chain of Peroxisome proliferator-activated receptor gamma/Nuclear receptor coactivator 2 (Q15596 whole entry, further chain): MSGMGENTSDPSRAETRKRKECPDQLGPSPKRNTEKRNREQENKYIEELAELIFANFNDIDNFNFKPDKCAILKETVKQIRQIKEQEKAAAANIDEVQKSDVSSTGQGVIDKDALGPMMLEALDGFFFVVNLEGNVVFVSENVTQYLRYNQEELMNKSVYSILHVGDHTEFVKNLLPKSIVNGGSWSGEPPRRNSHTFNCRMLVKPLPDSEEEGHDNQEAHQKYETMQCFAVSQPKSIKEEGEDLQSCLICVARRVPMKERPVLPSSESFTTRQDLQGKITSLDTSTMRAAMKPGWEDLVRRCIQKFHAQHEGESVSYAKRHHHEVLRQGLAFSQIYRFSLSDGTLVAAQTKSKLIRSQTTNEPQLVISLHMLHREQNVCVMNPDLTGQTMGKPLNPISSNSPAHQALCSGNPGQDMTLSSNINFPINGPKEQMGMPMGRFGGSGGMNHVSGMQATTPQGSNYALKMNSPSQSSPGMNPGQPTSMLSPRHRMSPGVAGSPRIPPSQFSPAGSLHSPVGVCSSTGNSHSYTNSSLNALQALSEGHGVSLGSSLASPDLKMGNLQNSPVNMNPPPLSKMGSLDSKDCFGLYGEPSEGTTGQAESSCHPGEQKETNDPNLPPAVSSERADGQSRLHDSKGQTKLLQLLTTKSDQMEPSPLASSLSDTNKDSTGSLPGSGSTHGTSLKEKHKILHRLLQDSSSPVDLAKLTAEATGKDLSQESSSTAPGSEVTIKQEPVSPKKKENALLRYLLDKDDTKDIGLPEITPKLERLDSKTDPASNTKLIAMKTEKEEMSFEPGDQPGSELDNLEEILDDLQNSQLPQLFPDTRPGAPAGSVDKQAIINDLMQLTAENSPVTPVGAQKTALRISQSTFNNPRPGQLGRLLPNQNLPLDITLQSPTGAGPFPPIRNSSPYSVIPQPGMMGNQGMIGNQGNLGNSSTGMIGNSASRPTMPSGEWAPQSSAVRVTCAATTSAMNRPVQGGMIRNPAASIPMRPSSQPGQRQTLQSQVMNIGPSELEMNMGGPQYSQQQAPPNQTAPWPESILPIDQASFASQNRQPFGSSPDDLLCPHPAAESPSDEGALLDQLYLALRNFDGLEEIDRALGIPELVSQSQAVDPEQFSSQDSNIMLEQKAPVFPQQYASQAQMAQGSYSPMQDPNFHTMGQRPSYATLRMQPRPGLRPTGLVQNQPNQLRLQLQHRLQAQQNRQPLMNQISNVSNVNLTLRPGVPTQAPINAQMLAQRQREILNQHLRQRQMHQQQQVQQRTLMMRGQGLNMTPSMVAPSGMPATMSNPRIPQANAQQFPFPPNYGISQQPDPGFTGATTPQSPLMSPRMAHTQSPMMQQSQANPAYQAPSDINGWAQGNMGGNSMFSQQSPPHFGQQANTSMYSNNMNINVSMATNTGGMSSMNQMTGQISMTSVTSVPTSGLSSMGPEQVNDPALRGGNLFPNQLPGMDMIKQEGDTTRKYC
# Chain of Peroxisome proliferator-activated receptor gamma/Nuclear receptor coactivator 3 (P37231 whole entry): as the sequence (P37231 whole entry) above
# Chain of Peroxisome proliferator-activated receptor gamma/Nuclear receptor coactivator 3 (Q9Y6Q9 whole entry, further chain): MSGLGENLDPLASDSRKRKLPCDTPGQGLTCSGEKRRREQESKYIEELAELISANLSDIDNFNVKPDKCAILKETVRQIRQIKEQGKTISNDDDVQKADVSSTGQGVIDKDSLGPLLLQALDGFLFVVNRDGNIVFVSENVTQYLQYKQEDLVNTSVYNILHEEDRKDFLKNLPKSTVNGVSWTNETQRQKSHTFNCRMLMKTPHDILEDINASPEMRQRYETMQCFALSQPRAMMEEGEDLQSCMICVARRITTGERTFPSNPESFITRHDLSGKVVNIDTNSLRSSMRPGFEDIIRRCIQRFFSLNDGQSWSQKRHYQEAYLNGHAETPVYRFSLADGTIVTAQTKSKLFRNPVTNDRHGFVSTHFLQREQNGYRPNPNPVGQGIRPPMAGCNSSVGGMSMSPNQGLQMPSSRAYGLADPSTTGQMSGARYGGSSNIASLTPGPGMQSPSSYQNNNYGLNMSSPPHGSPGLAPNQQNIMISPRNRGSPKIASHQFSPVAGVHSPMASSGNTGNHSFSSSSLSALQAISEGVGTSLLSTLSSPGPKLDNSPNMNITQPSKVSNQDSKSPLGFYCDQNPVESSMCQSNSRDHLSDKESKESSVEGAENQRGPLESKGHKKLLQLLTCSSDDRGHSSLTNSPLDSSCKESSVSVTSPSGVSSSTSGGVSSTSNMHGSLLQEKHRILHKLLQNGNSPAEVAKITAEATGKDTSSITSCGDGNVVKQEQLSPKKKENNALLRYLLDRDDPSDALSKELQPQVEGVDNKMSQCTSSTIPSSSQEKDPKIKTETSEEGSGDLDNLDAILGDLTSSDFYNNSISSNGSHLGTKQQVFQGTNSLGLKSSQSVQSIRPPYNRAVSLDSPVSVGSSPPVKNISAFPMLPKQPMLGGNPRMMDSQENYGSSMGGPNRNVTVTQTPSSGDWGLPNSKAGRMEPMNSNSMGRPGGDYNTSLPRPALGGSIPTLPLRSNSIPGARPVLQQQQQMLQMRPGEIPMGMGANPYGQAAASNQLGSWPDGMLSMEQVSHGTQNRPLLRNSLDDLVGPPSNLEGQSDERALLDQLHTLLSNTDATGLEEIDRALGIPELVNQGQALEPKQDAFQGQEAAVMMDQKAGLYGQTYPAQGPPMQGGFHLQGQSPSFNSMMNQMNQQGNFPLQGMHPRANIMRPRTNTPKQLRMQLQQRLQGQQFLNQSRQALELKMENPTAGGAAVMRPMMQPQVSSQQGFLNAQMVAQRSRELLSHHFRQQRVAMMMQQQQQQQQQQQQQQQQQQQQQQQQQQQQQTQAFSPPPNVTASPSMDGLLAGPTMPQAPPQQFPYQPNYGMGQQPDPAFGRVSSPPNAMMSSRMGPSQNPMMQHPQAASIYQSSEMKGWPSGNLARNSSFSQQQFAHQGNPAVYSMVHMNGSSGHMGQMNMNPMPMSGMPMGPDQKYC
smiles,measurement,setting,value
CSc1c(SCc2ccccc2)cnn(-c2ccccc2)c1=O,EC50,[1],13.2 µM (inactive)
same,EC50,[2],> 79.4 µM (not active)
same,EC50,[3],10.7 µM (not active)
same,AC50,[4],2.51 µM (active)
CCc1sc(C(=O)Nc2cc(S(=O)(=O)N3CCOCC3)ccc2OC)cc1C,IC50,Cannabinoid receptor 2 [5],> 32 µM (inactive)
same,EC50,[6],> 32 µM (inactive)
same,EC50,Cannabinoid receptor 2 [7],> 32 µM (inactive)
same,EC50,[8],> 32 µM (inactive)
same,IC50,Cannabinoid receptor 1 [9],> 32 µM (inactive)
same,EC50,Cannabinoid receptor 1 [10],> 32 µM (inactive)
same,IC50,[11],> 32 µM (inactive)
COc1cccc(NC(=O)N2CCCN(Cc3ccccc3F)C2)c1,IC50,[12],> 150 µM (active)
CCNC(=O)NC(=O)C(C)OC(=O)c1cc2c(C)nn(Cc3ccc(Cl)cc3)c2s1 (centres undefined),EC50,[13],> 50 µM (inactive)
COc1cc(/C=N\NS(=O)(=O)c2ccccc2)cc(OC)c1OC,EC50,[14],> 100 µM (inactive)
